Measurements: ChEMBL document CHEMBL1201862, “PubChem BioAssay data set” (2004)
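All cell lines were grown in 96-well plates and treated with compound for 48 hours. GI50 = concentration required for 50% inhibition of growth.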 The source made the active and inactive calls. No stated cut-off is given here; in the data, active = GI50 up to about 1.1 µM and inactive = higher.

Key:
Experiment in all cases: growth of human tumour cells (NCI), 48 h
786-0 = system: 786-0
SW-620 = system: SW-620
SK-MEL-28 = system: SK-MEL-28
MCF7 = system: MCF7
OVCAR-3 = system: OVCAR-3
A549 = system: A549
MOLT-4 = system: MOLT-4
SF-539 = system: SF-539
SK-OV-3 = system: SK-OV-3
LOX IMVI = system: LOX IMVI
UACC-257 = system: UACC-257
HCC 2998 = system: HCC 2998
SF-295 = system: SF-295
BT-549 = system: BT-549
HOP-92 = system: HOP-92
NCI-H522 = system: NCI-H522
OVCAR-8 = system: OVCAR-8
U-251 = system: U-251
SNB-19 = system: SNB-19
TK-10 = system: TK-10
SK-MEL-2 = system: SK-MEL-2
DU-145 = system: DU-145
MDA-MB-435 = system: MDA-MB-435
M14 = system: M14
HCT-116 = system: HCT-116
HCT-15 = system: HCT-15
OVCAR-4 = system: OVCAR-4
COLO 205 = system: COLO 205
T47D = system: T47D
NCI-H226 = system: NCI-H226
HOP-62 = system: HOP-62
CAKI-1 = system: CAKI-1
Malme-3M = system: Malme-3M
Hs-578T = system: Hs-578T
PC-3 = system: PC-3
EKVX = system: EKVX
KM12 = system: KM12
SK-MEL-5 = system: SK-MEL-5
UO-31 = system: UO-31
SN12C = system: SN12C
SF-268 = system: SF-268
HT-29 = system: HT-29
UACC-62 = system: UACC-62
NCI-H460 = system: NCI-H460
OVCAR-5 = system: OVCAR-5
IGROV-1 = system: IGROV-1
A498 = system: A498
ACHN = system: ACHN
SNB-75 = system: SNB-75
MDA-MB-231 = system: MDA-MB-231
NCI/ADR-RES = system: NCI/ADR-RES
NCI-H23 = system: NCI-H23
MDA-N = system: MDA-N
CCRF-CEM = system: CCRF-CEM
HL-60 = system: HL-60
K562 = system: K562
RPMI-8226 = system: RPMI-8226

Cc1oc2c(c1C)S(=O)(=O)C(C#N)C(c1ccccc1)N2 (stereo not drawn)
GI50 (786-0): 40.9 µM (inactive)
GI50 (SW-620): > 100 µM (inactive)
GI50 (SK-MEL-28): > 100 µM (inactive)
GI50 (MCF7): 51.5 µM (inactive)
GI50 (OVCAR-3): 65.6 µM (inactive)
GI50 (A549): 44.7 µM (inactive)
GI50 (MOLT-4): 20.6 µM (inactive)
GI50 (SF-539): 39.6 µM (inactive)
GI50 (SK-OV-3): 86.5 µM (inactive)
GI50 (LOX IMVI): 43.8 µM (inactive)
GI50 (UACC-257): 56.6 µM (inactive)
GI50 (HCC 2998): 53.8 µM (inactive)
GI50 (SF-295): 78.9 µM (inactive)
GI50 (BT-549): 45.4 µM (inactive)
GI50 (HOP-92): 64.6 µM (inactive)
GI50 (NCI-H522): 16.9 µM (inactive)
GI50 (OVCAR-8): 40.4 µM (inactive)
GI50 (U-251): 55 µM (inactive)
GI50 (SNB-19): > 100 µM (inactive)
GI50 (TK-10): > 100 µM (inactive)
GI50 (SK-MEL-2): 61.8 µM (inactive)
GI50 (DU-145): 80.7 µM (inactive)
GI50 (MDA-MB-435): 34.5 µM (inactive)
GI50 (M14): 40.4 µM (inactive)
GI50 (HCT-116): 50 µM (inactive)
GI50 (HCT-15): 38.7 µM
GI50 (OVCAR-4): 29.6 µM (inactive)
GI50 (COLO 205): 29.3 µM (inactive)
GI50 (T47D): 62.5 µM (inactive)
GI50 (NCI-H226): > 100 µM (inactive)
GI50 (HOP-62): > 100 µM (inactive)
GI50 (CAKI-1): 36.1 µM (inactive)
GI50 (Malme-3M): 37.7 µM (inactive)
GI50 (Hs-578T): 30.9 µM (inactive)
GI50 (PC-3): 66.5 µM (inactive)
GI50 (EKVX): > 100 µM (inactive)
GI50 (KM12): 50.4 µM (inactive)
GI50 (SK-MEL-5): 32.4 µM (inactive)
GI50 (UO-31): 41.5 µM (inactive)
GI50 (SN12C): 49.8 µM (inactive)
GI50 (SF-268): 56 µM (inactive)
GI50 (HT-29): 67.6 µM (inactive)
GI50 (UACC-62): 41.4 µM (inactive)
GI50 (NCI-H460): 41 µM (inactive)
GI50 (OVCAR-5): 91.6 µM (inactive)
GI50 (IGROV-1): > 100 µM (inactive)
GI50 (A498): > 100 µM (inactive)
GI50 (ACHN): > 100 µM (inactive)
GI50 (SNB-75): 40.2 µM (inactive)
GI50 (MDA-MB-231): > 100 µM (inactive)
GI50 (NCI/ADR-RES): 30.8 µM (inactive)
GI50 (NCI-H23): 69.5 µM (inactive)
GI50 (MDA-N): 29 µM (inactive)
GI50 (CCRF-CEM): 20.4 µM (inactive)

Cc1c(C)c(C)c(Cn2[nH]c(=O)n(C)c2=O)c(C)c1C
GI50 (HL-60): > 100 µM (inactive)
GI50 (786-0): > 100 µM (inactive)
GI50 (SW-620): > 100 µM (inactive)
GI50 (SK-MEL-28): > 100 µM (inactive)
GI50 (MCF7): > 100 µM (inactive)
GI50 (A549): > 100 µM (inactive)
GI50 (MOLT-4): > 100 µM (inactive)
GI50 (SF-539): > 100 µM (inactive)
GI50 (SK-OV-3): > 100 µM (inactive)
GI50 (LOX IMVI): > 100 µM (inactive)
GI50 (UACC-257): > 100 µM (inactive)
GI50 (HCC 2998): > 100 µM (inactive)
GI50 (SF-295): > 100 µM (inactive)
GI50 (BT-549): > 100 µM (inactive)
GI50 (HOP-92): > 100 µM (inactive)
GI50 (NCI-H522): > 100 µM (inactive)
GI50 (OVCAR-8): > 100 µM (inactive)
GI50 (U-251): > 100 µM (inactive)
GI50 (SNB-19): > 100 µM (inactive)
GI50 (TK-10): > 100 µM (inactive)
GI50 (SK-MEL-2): > 100 µM (inactive)
GI50 (DU-145): > 100 µM (inactive)
GI50 (MDA-MB-435): > 100 µM (inactive)
GI50 (M14): > 100 µM (inactive)
GI50 (HCT-116): > 100 µM (inactive)
GI50 (HCT-15): > 100 µM
GI50 (COLO 205): > 100 µM (inactive)
GI50 (T47D): > 100 µM (inactive)
GI50 (NCI-H226): > 100 µM (inactive)
GI50 (HOP-62): > 100 µM (inactive)
GI50 (CAKI-1): > 100 µM (inactive)
GI50 (Malme-3M): > 100 µM (inactive)
GI50 (Hs-578T): > 100 µM (inactive)
GI50 (PC-3): > 100 µM (inactive)
GI50 (EKVX): > 100 µM (inactive)
GI50 (KM12): > 100 µM (inactive)
GI50 (SK-MEL-5): > 100 µM (inactive)
GI50 (UO-31): > 100 µM (inactive)
GI50 (SN12C): > 100 µM (inactive)
GI50 (SF-268): > 100 µM (inactive)
GI50 (HT-29): > 100 µM (inactive)
GI50 (UACC-62): > 100 µM (inactive)
GI50 (NCI-H460): > 100 µM (inactive)
GI50 (IGROV-1): > 100 µM (inactive)
GI50 (A498): > 100 µM (inactive)
GI50 (ACHN): > 100 µM (inactive)
GI50 (SNB-75): > 100 µM (inactive)
GI50 (MDA-MB-231): > 100 µM (inactive)
GI50 (NCI/ADR-RES): > 100 µM (inactive)
GI50 (K562): > 100 µM (inactive)
GI50 (RPMI-8226): > 100 µM (inactive)
GI50 (NCI-H23): > 100 µM (inactive)
GI50 (MDA-N): > 100 µM (inactive)
GI50 (CCRF-CEM): > 100 µM (inactive)
